Laboratory results: US8877752B2, “4(1H)-quinolones having antimalarial activity with reduced chemical resistance” (University of South Florida, priority 2011, dated 2014)
pEC50: −log10 of the molar value. Read-outs that look alike come from different tables or passages of the source.

Key:
[1] = tested on: P. falciparum TM90-C2B/Thailand (chloroquine-, mefloquine-, pyrimethamine-, and atovaquone-resistant); assay: in vitro antimalarial activity against TM90-C2B (SYBR Green I); format: cell-based; conditions: for pEC50: Plasmodium falciparum, read-out: EC50 against TM90-C2B; for resistance index RI=EC50(TM90-C2B)/EC50(W2): RI 0.3-3.0 considered acceptable; for less potent against TM90-C2B than against W2: W2 versus TM90-C2B; for antimalarial activity against TM90-C2B (in words): comparison; for more potent against TM90-C2B compared to 27: relative to compound 27
Experimental: (§1) All synthesized quinolones were tested as described in Cross et al., (2010) J. Med. Chem. 53, 7076-7094 and Reid et al., (2011) Bioorg.
(§2) Parasite Culturing: P. falciparum clone W2/Indochina and TM90C2B/Thailand were grown in continuous culture using RPMI 1640 media containing 10% heat-inactivated type A+ human plasma, sodium bicarbonate (2.4 g/L), HEPES (5.94 g/L) and 4% washed human type A+ erythrocytes. Cultures were gassed with a 90% nitrogen, 5% oxygen and 5% carbon dioxide mixture followed by incubation at 37° C.
(§3) Assay Preparation: Test compounds at 5 mg/mL in DMSO were diluted at least 1:400 and then serially diluted in duplicate over 11 concentrations. P. falciparum cultures with greater than 70% ring stage parasites were diluted to 0.5-0.7% parasitemia and 1.5% hematocrit in RPMI 1640 media. In 96-well plates a volume of 90 μl/well of parasitized erythrocytes was added on top of 10 μL/well of the test compound. […] A Beckman Coulter Biomek 3000 was used to dispense test compounds, control drugs and parasitized erythrocytes into the microtiter plates. Positive and negative controls were included in each plate. […] Assay plates were placed into a plastic gassing chamber and equilibrated with 90% nitrogen, 5% oxygen and 5% carbon dioxide mixture then incubated at 37° C. for 72 hrs. The assay plates were then frozen at −80° C. until later processed for parasite growth determinations.
(§4) SYBR Green I Processing: Assay plates were removed from −80° C. storage and allowed to thaw at room temperature. Using the Beckman Biomek 3000, 100 μL was transferred from the assay plates into 96-well black assay plates. Next, 100 μl of SYBR green I (Invitrogen) in 2× lysis buffer (0.2 μl SYBR green I/mL of 2× lysis buffer (0.008% saponin, 0.08% Triton X-100, 20 mM Tris and 5 mM EDTA)) was dispensed into each well of the 96-well black assay plate using the Beckman Coulter Biomek 3000. Upon addition of SYBR green I the microtiter plates were incubated for 1 hrs. in the dark. Relative Fluorescence units (RFU) were read using a Molecular Devices Spectramax microplate reader.
(§5) Data Analysis: Data analysis was performed using a custom database manager (Dataspects, Inc). Nonlinear regression analysis was used to calculate EC50.

[2] = tested on: P. falciparum clone W2/Indochina (chloroquine- and pyrimethamine-resistant); assay: in vitro antimalarial activity against W2 (SYBR Green I); format: cell-based; conditions: for pEC50: Plasmodium falciparum, P. falciparum W2, 72 hrs incubation; for antimalarial activity against W2 (in words): comparison; for less active against W2 in comparison to 17: relative to reference compound 17
Experimental: as §1, §2, §3, §4, §5

P. cynomolgi sporozoites = conditions: treated 5 to 7 consecutive days, cited from earlier work
[3] = P. falciparum TM90-C2B, 72 hrs incubation

SMILES: O=C1C(O)=C([C@H]2CC[C@H](c3ccc(Cl)cc3)CC2)C(=O)c2ccccc21 [ATO, atovaquone, reference compound]
- pEC50 [1, 3]: < 6.77
- pEC50 [2]: 9.28

SMILES: CCCCc1cc2c(=O)c(C(=O)OC)c(C)[nH]c2cc1OCCOc1ccccc1 [Compound 5, Methyl 6-butyl-2-methyl-4-oxo-7-(2-phenoxyethoxy)-1,4-dihydroquinoline-3-carboxylate, reference compound]
- relapse after 120 days of exposure (P. cynomolgi sporozoites; rhesus monkeys inoculated intravenously with sporozoites): no relapse
- curative dose (P. cynomolgi sporozoites; rhesus monkeys): 15 mg/kg
- pEC50 [1, 3]: 7.95
- resistance index RI=EC50(TM90-C2B)/EC50(W2) [1]: 223
- less potent against TM90-C2B than against W2 [1]: approximately 220
- pEC50 [2]: 10.30

SMILES: CCCCc1cc2c(=O)c(CC)c(C)[nH]c2cc1OCCOc1ccccc1 [Compound 16, 6-butyl-3-ethyl-2-methyl-7-(2-phenoxyethoxy)quinolin-4(1H)-one]
- pEC50 [1, 3]: 9.82
- resistance index RI=EC50(TM90-C2B)/EC50(W2) [1]: 0.08
- pEC50 [2]: 8.72

SMILES: CCc1c(C)[nH]c2cc(OCCOc3ccccc3)c(Cl)cc2c1=O [Compound 17, 6-chloro-3-ethyl-2-methyl-7-(2-phenoxy-ethoxy)-1H-quinolin-4-one]
- antimalarial activity against TM90-C2B (in words) [1]: unaffected or slightly improved
- antimalarial activity against W2 (in words) [2]: slightly reduced activities

SMILES: CCc1c(C)[nH]c2cc(OCCOc3ccccc3)c(C)cc2c1=O [Compound 18, 3-ethyl-2,6-dimethyl-7-(2-phenoxy-ethoxy)-1H-quiolin-4-one]
- more potent against TM90-C2B compared to 27 [1]: 3 fold
- antimalarial activity against W2 (in words) [2]: less active

SMILES: CCc1c(C)[nH]c2cc(OCCOc3ccccc3)c(OC)cc2c1=O [Compound 19]
- more potent against TM90-C2B compared to 27 [1]: 3 fold
- antimalarial activity against W2 (in words) [2]: less active

SMILES: CCc1c(C)[nH]c2cc(OCOC)c(Cl)cc2c1=O [Compound 20, 6-chloro-3-ethyl-7-methoxymethoxy-2-methyl-1H-quinoline-4-one]
- less active against W2 in comparison to 17 [2]: approximately 4 fold

SMILES: CCc1c(C)[nH]c2cc(OCCN3CCOCC3)c(Cl)cc2c1=O [Compound 23, 6-chloro-3-ethyl-2-methyl-7-(2-morpholin-4-yl-ethoxy)-1H-quinolin-4-one]
- melting point: 270 to 271 °C

SMILES: CCc1c(C)[nH]c2cc(OCCN(C)C)c(Cl)cc2c1=O [Compound 24, 6-chloro-7-(2-dimethylamino-ethoxy)-3-ethyl-2-methyl-1H-quinolin-4-one]
- melting point: 227 to 230 °C

SMILES: CCc1c(C)[nH]c2cc(OCCOc3ccccc3)c(Br)cc2c1=O [Compound 25, 6-bromo-3-ethyl-2-methyl-7-(2-phenoxy-ethoxy)-1H-quinolin-4-one]
- antimalarial activity against TM90-C2B (in words) [1]: unaffected or slightly improved
- antimalarial activity against W2 (in words) [2]: slightly reduced activities

SMILES: CCc1c(C)[nH]c2cc(OCCCN3CCN(c4ccccc4)CC3)c(Cl)cc2c1=O [Compound 26, 6-chloro-3-ethyl-2-methyl-7-[3-(4-phenyl-piperazin-1-yl)-propoxy]-1H-quinolin-4-one]
- less active against W2 in comparison to 17 [2]: approximately 4 fold

SMILES: CCc1c(C)[nH]c2cc(OCCOc3ccccc3)ccc2c1=O [Compound 27, 3-ethyl-2-methyl-7-(2-phenoxyethoxy)quinolin-4(1H)-one]
- pEC50 [1, 3]: 7.15
- pEC50 [2]: 6.98

SMILES: CCCCc1cc2c(=O)c(-c3ccccc3)c(C)[nH]c2cc1OCCOc1ccccc1 [Compound 31, 6-butyl-2-methyl-7-(2-phenoxyethoxy)-3-phenylquinolin-4(1H)-one]
- pEC50 [1, 3]: 6.12

SMILES: CCCCc1cc2c(=O)c(-c3ccncc3)c(C)[nH]c2cc1OCCOc1ccccc1 [Compound 32, 6-butyl-2-methyl-7-(2-phenoxyethoxy)-3-(pyridin-4-yl)quinolin-4(1H)-one]
- antimalarial activity against TM90-C2B (in words) [1]: moderate activity in low micromolar or high nanomolar range
- antimalarial activity against W2 (in words) [2]: moderate activity in low micromolar or high nanomolar range

SMILES: CCCCc1cc2c(=O)c(-c3cccnc3)c(C)[nH]c2cc1OCCOc1ccccc1 [Compound 33, 6-butyl-2-methyl-7-(2-phenoxyethoxy)-3-(pyridin-3-yl)quinolin-4(1H)-one]
- antimalarial activity against TM90-C2B (in words) [1]: moderate activity in low micromolar or high nanomolar range
- antimalarial activity against W2 (in words) [2]: moderate activity in low micromolar or high nanomolar range

SMILES: CCCCc1cc2c(=O)c(-c3ccc(OC(F)(F)F)cc3)c(C)[nH]c2cc1OCCOc1ccccc1 [Compound 35, 6-butyl-2-methyl-7-(2-phenoxyethoxy)-3-(4-(trifluoromethoxy)phenyl)quinolin-4(1H)-one]
- pEC50 [1, 3]: 7.51
- resistance index RI=EC50(TM90-C2B)/EC50(W2) [1]: 1.1
- pEC50 [2]: 7.55

SMILES: CCCCc1cc2c(=O)c(-c3cccc(Oc4ccc(F)cc4)c3)c(C)[nH]c2cc1OCCOc1ccccc1 [Compound 36, 6-butyl-3-(3-(4-fluorophenoxy)phenyl)-2-methyl-7-(2-phenoxyethoxy)quinolin-4(1H)-one]
- antimalarial activity against TM90-C2B (in words) [1]: inactive
- antimalarial activity against W2 (in words) [2]: inactive

SMILES: CCCCc1cc2c(=O)c(-c3ccc(COc4ccc(OC(F)(F)F)cc4)cc3)c(C)[nH]c2cc1OCCOc1ccccc1 [Compound 37, 6-butyl-2-methyl-7-(2-phenoxyethoxy)-3-(4-((4-(trifluoromethoxy)phenoxy)methyl)phenyl) quinolin-4(1H)-one]
- antimalarial activity against TM90-C2B (in words) [1]: inactive
- antimalarial activity against W2 (in words) [2]: inactive

SMILES: CCCCc1cc2c(=O)c(-c3ccc(C(F)(F)F)cc3F)c(C)[nH]c2cc1OCCOc1ccccc1 [Compound 41, 6-butyl-3-(2-fluoro-4-(trifluoromethyl)phenyl)-2-methyl-7-(2-phenoxyethoxy)quinolin-4(1H)-one]
- resistance index RI=EC50(TM90-C2B)/EC50(W2) [1]: pharmaceutically acceptable

SMILES: CCCCc1cc2c(=O)c(-c3c(C)noc3C)c(C)[nH]c2cc1OCCOc1ccccc1 [Compound 43, 6-butyl-3-(3,5-dimethylisoxazol-4-yl)-2-methyl-7-(2-phenoxyethoxy)quinolin-4(1H)-one]
- resistance index RI=EC50(TM90-C2B)/EC50(W2) [1]: pharmaceutically acceptable
- less potent against TM90-C2B than against W2 [1]: approximately 5
- pEC50 [2]: 7.57

SMILES: C[C@H]1[C@@H](O)O[C@@H]2O[C@@]3(C)CC[C@H]4[C@H](C)CC[C@@H]1[C@@]24OO3 [DHA, Dihydroartemisinin, reference compound]
- pEC50 ([1]; TM90, 72 h): 9.05
- pEC50 [2]: 8.74
